Marks after values point to notes of the source that are not given here.
Experiments:
[1] = Diazepam solubility in excipients; assay type: physicochemical; conditions: diazepam (API) in the excipient
Excerpt: Diazepam was applied in the buccal area (cheek) to diffuse through the oral mucosa and enter directly into the bloodstream. Solubility of diazepam was also studied using various excipients.
The following excipients have also been studied to improve solubility.

[2] = FIG. 6A, 6B
[3] = Excipient properties (HLB, water solubility); assay type: physicochemical; conditions: of the excipient
[4] = Ex vivo permeation of epinephrine, Franz diffusion cell
Protocol: A franz diffusion cell is obtained and prepared.
If testing films, one can perform the following next steps: (1) weigh films, punch to match diffusion area (or smaller), reweigh, record pre- and post-punching weight; (2) wet a donor area with approximately 100 μL of phosphate buffer; (3) place film on a donor surface, top with 400 μL of phosphate buffer, and start timers.
The tissue is dermatomed to precise thickness. • 4. […] The media is selected to ensure sink conditions. • 5.

Q: With `CCCCCCCC/C=C\CCCCCCCC(=O)O` [Oleic Acid] as the compound, how does the “API Solubility mg/gm total mix” value [1] read?
A: <50 mg/gm total mix

Q: Which “API Solubility mg/gm total mix” value [1] does the source give for `CC(O)CO` (stereo not shown) [Propylene Glycol] here?
A: <30 mg/gm total mix

Q: With `OCc1ccccc1` [Benzyl Alcohol] as the compound, how does the “API Solubility mg/gm total mix” value [1] read?
A: 400 mg/gm total mix

Q: For `CNC[C@H](O)c1ccc(O)c(O)c1` [epinephrine], which “time after which amount leveled off” value [2] is on record?
A: about 40 minutes

Q: For `CCCCCCCC/C=C\CCCCCCCC(=O)OCC(O)CO` (stereo not shown) [Glycerol Monooleate], which “API Solubility mg/gm total mix” value [1] is on record?
A: 71 mg/gm total mix

Q: What about the HLB [3] of the same compound?
A: 1

Q: With `CNC[C@H](O)c1ccc(O)c(O)c1` [Epinephrine Base] as the compound, how does the “permeation, base solubilized in situ vs Epinephrine Bitartrate” value ([4]; 4.4 mg/mL base vs 8.00 mg/mL bitartrate) read?
A: no differences were found

Q: And the “Average Steady State Flux” value ([4]; conc 4.4 mg/mL, solubilized in situ)?
A: 0.512 ug/cm2 * min

Q: With `CNC[C@H](O)c1ccc(O)c(O)c1` [Epinephrine Bitartrate] as the compound, how does the “permeation as a function of concentration” value [4] read?
A: increasing concentration resulted in increased permeation

Q: What about the “permeation as a function of solution pH” value [4] of the same compound?
A: pH 5 was slightly more favorable as compared to pH 3

Q: What about the average flux ([4]; 30 min, 16 mg/mL) of the same compound?
A: 0 μg/cm2 * min

Q: And the average flux ([4]; 45 min, 16 mg/mL)?
A: 0.2604 μg/cm2 * min

Q: And the average flux ([4]; 60 min, 16 mg/mL)?
A: 0.3125 μg/cm2 * min

Q: And the average flux ([4]; 120 min, 16 mg/mL)?
A: 0.6727 μg/cm2 * min

Q: What about the average flux ([4]; 180 min, 16 mg/mL) of the same compound?
A: 1.076 μg/cm2 * min

Q: What about the average flux ([4]; 240 min, 16 mg/mL) of the same compound?
A: 1.029 μg/cm2 * min

Q: And the average flux ([4]; 300 min, 16 mg/mL)?
A: 1.25 μg/cm2 * min

Q: And the “Average Steady State Flux” value ([4]; 360 min, 4 mg/mL)?
A: 0.167 ug/cm2 * min

Q: What about the “Average Steady State Flux” value ([4]; 360 min, 8 mg/mL) of the same compound?
A: 0.466 ug/cm2 * min

Q: And the “Average Steady State Flux” value ([4]; 360 min, 16 mg/mL)?
A: 1.317 ug/cm2 * min

Q: What about the average flux ([4]; 360 min, 16 mg/mL) of the same compound?
A: 1.385 μg/cm2 * min

Q: And the “Average Steady State Flux” value ([4]; 360 min, 100 mg/mL)?
A: 2.942 ug/cm2 * min

— patent US11273131B2, “Pharmaceutical compositions with enhanced permeation” (AQUESTIVE THERAPEUTICS, INC., priority 2016, dated 2022)
